Measurements: paper PMC11600199 (JACS Au, 2024)
≈ marks a conversion by molar mass, not a printed value.

Tests used:
[1] = Chemical stability in aqueous 1 M HCl or 1 M NaOH and on shelf storage; assay type: physicochemical; conditions: aqueous 1 M hydrochloric acid or aqueous 1 M sodium hydroxide, room temperature, 1 day
[2] = Kinetic solubility in phosphate-buffered saline pH 7.4; conditions: 25 °C, pH 7.4, aqueous buffer, kinetic from dmso stock
[3] = human liver microsomes
Experimental pKa = assay type: physicochemical; conditions: amine hydrochlorides

Structure (SMILES) | solubility kinetic at 2 h [2] | CLint [3] | also measured
FC(F)(F)C1(c2cccnc2)CCC1 [12a] | – | – | decomposition on treatment with acid or base [1]: did not lead to any decomposition
CN(Cc1ccc(C(C)(C)C)cc1)Cc1cccc2ccccc12 [Butenafine] | 10 µM (≈ 3.17 µg/mL) | 30 mg min^–1 μL^–1 | –
CCc1cc(C)cc(CC)c1-c1c(OC(=O)C(C)(C)C)n2n(c1=O)CCOCC2 [Pinoxaden] | 358 µM (≈ 143 µg/mL) | – | –
CC(C)(C)C(=O)NNCc1ccccc1 [Pivhydrazine] | ≥ 400 µM | – | –
CC(C)N(Cc1ccccc1)C(=O)C(C)(C)C [Tebutam] | 324 µM (≈ 75.6 µg/mL) | 57 mg min^–1 μL^–1 | –
CC(C)(C)N.Cl [tert-butyl amine hydrochloride] | – | – | pKa (exp.) (Experimental pKa): 10.69
